Results reported in paper PMC8296573, “Synthesis and Biological Evaluation of Fingolimod Derivatives as Antibacterial Agents” (ACS Omega, 2021).
≈ marks a conversion by molar mass, not a printed value. Read-outs that look alike come from different tables or passages of the source.

Tests used:
[1] = Cytotoxicity, resazurin staining assay; format: cell-based, human; details: human, 24 h incubation
Method: The cytotoxicity of the compounds was assessed on the three different human cell lines, A549, HEp-2, and HL-60, using the redox-based resazurin staining assay. The cells were seeded in clear 96-well plates at a density of 1 × 10^4 cells per well in a volume of 200 μL per well. The adherent cells were let to attach for 24 h before changing the media and adding the compounds (final concentration of 0.25% DMSO). HL-60 were counted and added to the plates at a density of 1 × 10^4 cells per well in a volume of 200 μL directly with the compounds. Untreated cells were used as negative controls, and cells treated with 1% TritonX-100 (Sigma-Aldrich, St. Louis, MO) were used as positive controls for cytotoxicity. The cells were incubated with the compounds for 24 h.
For the resazurin assay, the media was first removed, and the adherent cells were washed once with PBS. Then, 200 μL of 20 μM resazurin was added per well and cells were incubated for two more hours before the measurement of fluorescence, as mentioned earlier. For HL-60, 10 μL of 400 μM resazurin was added directly to the wells and the cells were incubated for an additional 4 h before the measurement of fluorescence.

[2] = Colloidal aggregation by nephelometry; format: physicochemical; details: 25 µM
Method: 3. Aggregation data (Figure S3)
Potential colloidal aggregation in biological assays was studied at five concentrations (5 µM, 10 µM, 15 µM,
25 µM, 50 µM). The original assay conditions were simulated, and the light scattering of potential aggregates
in the mixture was studied by nephelometric methods using Nepheloskan Ascent (Labsystems, Finland).
Aggregation of the blank and compounds fingolimod, 43, 45, 55, 62, 79 and 82 were measured as triplicates
from one independent experiment at 400 V and at room temperature.
formation at 50 µM. […] However, at 15
µM, 10 µM and 5 µM, the obtained values were close to those observed by blank, therefore indicating only
minor or no detectable aggregation.
Figure S3: Aggregation data for fingolimod and compounds 43, 45, 55, 62, 79, 82. RNU = relative nephelometric unit.
The data are shown as the mean ± SD and normalized to the blank.
(1 picture or pasted object on this page, not shown here)

S. aureus ATCC 12598 = assay: Antibacterial activity, pre-exposure; format: cell-based, Staphylococcus aureus; details: for Average inhibition %, biofilms biomass / Average inhibition %, biofilms viability / Average inhibition %, planktonic cells turbidity / Average inhibition %, planktonic cells viability / inhibition at 5 µM / inhibition at 10 µM / inhibition at 15 µM / inhibition at 25 µM: S. aureus ATCC 12598, pre-exposure, ± SD; for inhibition at 5 µM / inhibition at 10 µM / inhibition at 15 µM / inhibition at 25 µM / MIC: Staphylococcus aureus, ATCC12598
Outline: (§1)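 Growth prevention was tested by adding compounds together with the inoculum. Plates were incubated 18 h at 37 °C. Viability was read by resazurin fluorescence and biomass by crystal violet absorbance at 595 nm.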

S. aureus P2 = assay: Antibacterial activity, pre-exposure; format: cell-based, Staphylococcus aureus; details: for Average inhibition %, biofilms biomass / Average inhibition %, biofilms viability / Average inhibition %, planktonic cells turbidity / Average inhibition %, planktonic cells viability / inhibition at 5 µM / inhibition at 10 µM / inhibition at 15 µM / inhibition at 25 µM: S. aureus P2, pre-exposure, ± SD; for MIC / inhibition at 5 µM / inhibition at 10 µM / inhibition at 15 µM / inhibition at 25 µM: Staphylococcus aureus; for MIC: P2
Outline: as §1

[3] = 5 µM, read-out: Average inhibition %, biofilms biomass
[4] = 5 µM, read-out: Average inhibition %, planktonic cells turbidity
[5] = 10 µM, read-out: Average inhibition %, biofilms biomass
[6] = 10 µM, read-out: Average inhibition %, planktonic cells turbidity
[7] = 15 µM, read-out: Average inhibition %, biofilms biomass
[8] = 15 µM, read-out: Average inhibition %, planktonic cells turbidity
[9] = 25 µM, read-out: Average inhibition %, biofilms biomass
[10] = 25 µM, read-out: Average inhibition %, planktonic cells turbidity
[11] = pre-exposure, 18 h, read-out: MIC S. aureus ATCC 12598

Row | Compound | CC50 at 24 h ([1]; A549 cells) [µM] | CC50 at 24 h ([1]; HEp-2 cells) [µM] | CC50 at 24 h ([1]; HL-60 cells) [µM] | Aggregation (nephelometry) [2] | Average inhibition %, biofilms viability (S. aureus ATCC 12598; 5 µM) [%] | Average inhibition %, planktonic cells viability (S. aureus ATCC 12598; 5 µM) [%] | Average inhibition %, biofilms viability (S. aureus ATCC 12598; 10 µM) [%] | Average inhibition %, planktonic cells viability (S. aureus ATCC 12598; 10 µM) [%] | Average inhibition %, biofilms viability (S. aureus ATCC 12598; 15 µM) [%] | Average inhibition %, planktonic cells viability (S. aureus ATCC 12598; 15 µM) [%] | Average inhibition %, biofilms viability (S. aureus ATCC 12598; 25 µM) [%] | Average inhibition %, planktonic cells viability (S. aureus ATCC 12598; 25 µM) [%] | Average inhibition %, biofilms viability (S. aureus P2; 5 µM) [%] | Average inhibition %, planktonic cells viability (S. aureus P2; 5 µM) [%] | Average inhibition %, biofilms viability (S. aureus P2; 10 µM) [%] | Average inhibition %, planktonic cells viability (S. aureus P2; 10 µM) [%] | Average inhibition %, biofilms viability (S. aureus P2; 15 µM) [%] | Average inhibition %, planktonic cells viability (S. aureus P2; 15 µM) [%] | Average inhibition %, biofilms viability (S. aureus P2; 25 µM) [%] | Average inhibition %, planktonic cells viability (S. aureus P2; 25 µM) [%] | also measured
1 | CCCCCCCCc1cccc(CCC(N)(CO)CO)c1 [Compound 43, 2-Amino-2-(3-octylphenethyl)propane-1,3-diol] | > 40 | > 40 | 23.4 ± 3.2 | potential aggregation | – | – | – | – | – | – | – | – | – | – | – | – | – | – | – | – | –
2 | 2-Amino-2-(4-decylbenzyl)propane-1,3-diol [Compound 45] | – | – | – | potential aggregation | 83.6 ± 38.2 | 83.4 ± 39.6 | 99.6 ± 0.1 | 99.8 ± 0 | 99.6 ± 0.1 | 99.8 ± 0 | 99.6 ± 0.1 | 99.8 ± 0.1 | 69.6 ± 37.8 | 70 ± 36.1 | 99.6 ± 0 | 99.8 ± 0 | 99.6 ± 0 | 99.7 ± 0.1 | 99.6 ± 0 | 99.6 ± 0.1 | Average inhibition %, biofilms biomass (S. aureus ATCC 12598; 5 µM): 75.4 ± 28.1%; Average inhibition %, planktonic cells turbidity (S. aureus ATCC 12598; 5 µM): 89.3 ± 24.1%; Average inhibition %, biofilms biomass (S. aureus ATCC 12598; 10 µM): 95.3 ± 0.4%; Average inhibition %, planktonic cells turbidity (S. aureus ATCC 12598; 10 µM): 99.4 ± 0%; Average inhibition %, biofilms biomass (S. aureus ATCC 12598; 15 µM): 94.4 ± 0.3%; Average inhibition %, planktonic cells turbidity (S. aureus ATCC 12598; 15 µM): 99.1 ± 0%; Average inhibition %, biofilms biomass (S. aureus ATCC 12598; 25 µM): 94.9 ± 1%; Average inhibition %, planktonic cells turbidity (S. aureus ATCC 12598; 25 µM): 98.3 ± 0.2%; MIC S. aureus ATCC 12598 (S. aureus ATCC 12598; pre-exposure, 18 h): 5 to 10 µM; Average inhibition %, biofilms biomass (S. aureus P2; 5 µM): 74.6 ± 24.7%; Average inhibition %, planktonic cells turbidity (S. aureus P2; 5 µM): 74.4 ± 34.2%; Average inhibition %, biofilms biomass (S. aureus P2; 10 µM): 97.6 ± 0.3%; Average inhibition %, planktonic cells turbidity (S. aureus P2; 10 µM): 99.4 ± 0.1%; Average inhibition %, biofilms biomass (S. aureus P2; 15 µM): 96.9 ± 1.4%; Average inhibition %, planktonic cells turbidity (S. aureus P2; 15 µM): 99.1 ± 0.1%; Average inhibition %, biofilms biomass (S. aureus P2; 25 µM): 97.6 ± 0.3%; Average inhibition %, planktonic cells turbidity (S. aureus P2; 25 µM): 98.6 ± 0.1%; MIC S. aureus P2 (S. aureus P2; pre-exposure, 18 h): 5 to 10 µM
3 | CCCCCCCCc1ccc(CCC(N)(CO)CO)cc1 [fingolimod, Fingolimod] | > 40 | > 40 | 36.1 ± 13.4 | potential aggregation | 16.9 ± 2.9 | 2.9 ± 2.9 | 35.8 ± 17.9 | 34 ± 29.5 | 99.2 ± 0.5 | 99.7 ± 0 | 99.6 ± 0.3 | 99.7 ± 0 | 18.2 ± 17 | 4.3 ± 7.4 | 55.4 ± 38 | 45 ± 45.6 | 99.8 ± 0 | 99.8 ± 0 | 99.8 ± 0.1 | 99.7 ± 0 | inhibition at 5 µM (S. aureus ATCC 12598; [3]): 18.5 ± 17.7%; inhibition at 5 µM (S. aureus ATCC 12598; [4]): 6.3 ± 8.7%; inhibition at 10 µM (S. aureus ATCC 12598; [5]): 43.2 ± 15.8%; inhibition at 10 µM (S. aureus ATCC 12598; [6]): 21.5 ± 27.1%; inhibition at 15 µM (S. aureus ATCC 12598; [7]): 94.5 ± 1.1%; inhibition at 15 µM (S. aureus ATCC 12598; [8]): 99.6 ± 0.1%; inhibition at 25 µM (S. aureus ATCC 12598; [9]): 95.2 ± 0.4%; inhibition at 25 µM (S. aureus ATCC 12598; [10]): 99.2 ± 0.1%; MIC (S. aureus ATCC 12598; [11]): 15 µM (≈ 4.61 µg/mL); MIC (S. aureus P2; pre-exposure, 18 h): 15 µM (≈ 4.61 µg/mL); inhibition at 5 µM (S. aureus P2; [3]): 34.9 ± 19%; inhibition at 5 µM (S. aureus P2; [4]): 3.3 ± 5.8%; inhibition at 10 µM (S. aureus P2; [5]): 64.3 ± 29.1%; inhibition at 10 µM (S. aureus P2; [6]): 39.5 ± 45.1%; inhibition at 15 µM (S. aureus P2; [7]): 98.3 ± 0.1%; inhibition at 15 µM (S. aureus P2; [8]): 99.6%; inhibition at 25 µM (S. aureus P2; [9]): 98 ± 0.4%; inhibition at 25 µM (S. aureus P2; [10]): 99.3 ± 0.1%
4 | CCCCCCCCc1ccc2cc(CC(N)(CO)CO)ccc2c1 [Compound 79, 2-Amino-2-[(6-octylnaphthalen-2-yl)methyl]propane-1,3-diol] | > 40 | > 40 | 26.9 ± 1.6 | potential aggregation | 65.9 ± 50.1 | 69.3 ± 47.1 | 99.6 ± 0.1 | 99.8 ± 0.1 | 99.5 ± 0 | 99.6 ± 0.1 | 99.5 ± 0.1 | 99.6 ± 0.1 | 49.4 ± 34.5 | 45.3 ± 32.9 | 99.4 ± 0 | 99.6 ± 0 | 99.4 ± 0 | 99.6 ± 0.1 | 99.5 ± 0 | 99.6 ± 0.1 | inhibition at 5 µM (S. aureus ATCC 12598; [3]): 63.5 ± 41.5%; inhibition at 5 µM (S. aureus ATCC 12598; [4]): 82.3 ± 26.8%; inhibition at 10 µM (S. aureus ATCC 12598; [5]): 94.7 ± 0.2%; inhibition at 10 µM (S. aureus ATCC 12598; [6]): 99.6%; inhibition at 15 µM (S. aureus ATCC 12598; [7]): 94.6 ± 0.6%; inhibition at 15 µM (S. aureus ATCC 12598; [8]): 99.4 ± 0.1%; inhibition at 25 µM (S. aureus ATCC 12598; [9]): 95 ± 1%; inhibition at 25 µM (S. aureus ATCC 12598; [10]): 99.2 ± 0.3%; MIC (S. aureus ATCC 12598; S. aureus ATCC 12598 and P2, read-out: MIC against the clinical strains of S. aureus): 5 to 10 µM (≈ 1.72 to 3.44 µg/mL); MIC (S. aureus ATCC 12598; [11]): 5 to 10 µM (≈ 1.72 to 3.44 µg/mL); MIC (S. aureus P2; pre-exposure, 18 h): 10 µM (≈ 3.44 µg/mL); inhibition at 5 µM (S. aureus P2; [3]): 63.6 ± 23.6%; inhibition at 5 µM (S. aureus P2; [4]): 45.4 ± 35.4%; inhibition at 10 µM (S. aureus P2; [5]): 95.8 ± 2.2%; inhibition at 10 µM (S. aureus P2; [6]): 99.5%; inhibition at 15 µM (S. aureus P2; [7]): 97.3 ± 0.5%; inhibition at 15 µM (S. aureus P2; [8]): 99.4 ± 0.1%; inhibition at 25 µM (S. aureus P2; [9]): 96.4 ± 1.3%; inhibition at 25 µM (S. aureus P2; [10]): 99.1 ± 0.2%
